Experimental data taken from ChEMBL document CHEMBL1159369, “Isolation, structure, and HIV-1 integrase inhibitory activity of Cytosporic acid, a fungal metabolite produced by a Cytospora sp” (J Nat Prod, 2003).
Calls of active or inactive are those of the source. The rule behind the calls is not given here.

Assays:
[1] = target: Human immunodeficiency virus type 1 integrase (Human immunodeficiency virus 1, UniProt Q7ZJM1); assay: Inhibition of HIV1 integrase strand transfer activity
[2] = target: Human immunodeficiency virus type 1 integrase (Human immunodeficiency virus 1) (UniProt Q7ZJM1); assay: Inhibition of HIV1 integrase strand transfer activity at 200 uM
Chain of Human immunodeficiency virus type 1 integrase (Human immunodeficiency virus 1) (Q7ZJM1 as listed by the source): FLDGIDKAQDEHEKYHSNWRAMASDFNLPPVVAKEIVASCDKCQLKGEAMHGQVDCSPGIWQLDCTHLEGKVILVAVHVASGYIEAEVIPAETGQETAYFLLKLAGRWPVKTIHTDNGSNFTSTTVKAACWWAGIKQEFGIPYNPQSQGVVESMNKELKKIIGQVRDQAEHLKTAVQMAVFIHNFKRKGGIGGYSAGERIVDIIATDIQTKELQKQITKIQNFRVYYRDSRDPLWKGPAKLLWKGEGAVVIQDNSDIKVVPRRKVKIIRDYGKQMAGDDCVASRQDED

Chain of Human immunodeficiency virus type 1 integrase (Q7ZJM1 whole entry): as the sequence (Q7ZJM1 as listed by the source) above

| Compound | IC50 [1] [µM] | Activity [2] |
| --- | --- | --- |
| CCCC[C@@H](C)C1=C(O)C(=O)[C@@H]2C[C@H](C)C[C@H](C(=O)O)[C@H]2[C@]1(C)C(=O)CCO [CYTOSPORIC ACID] | 20 |  |
| CCCCCC[C@@H](C)C1=C(O)C(=O)[C@@H]2[C@H](O)[C@H](C)C[C@H](O)[C@H]2[C@]1(C)C(=O)/C=C\O [AUSTRALIFUNGIN] | 20 |  |
| CCCCCC[C@@H](C)C1=C(O)C(=O)[C@@H]2[C@H](O)[C@H](C)C[C@H](O)[C@H]2[C@]1(C)C(=O)CCO |  | inactive |
